Biological target: T1, AMPK beta 1 (Homo sapiens, UniProt Q13131+Q9Y478)
T1 construct: in-cell-ELISA for phospho-ACC (Acetyl-CoA carboxylase 1) in HepG2 cells (liver); endogenous in cells; host or cells: HepG2
Experiment: in-cell-ELISA for phospho-ACC, Activity beta 1
Type: cell-based
Details: 2 h, serum free DMEM, percentage activation over vehicle control, cell line not given (HepG2 or C2C12 myotubes)
Description: (§1) Activation of AMPK by various compounds were measured using in-cell-ELISA for phospho-ACC (Acetyl-CoA carboxylase 1) in HepG2 cells (liver) and fully differentiated myotubes (C2C12 cells) grown in 96 well plate. Cells were treated with 1 μM of the molecule for 2 h in serum free DMEM media. After methanol fixation, cells were blocked with BSA followed by addition of anti-phospho ACC antibody (Cell Signaling) and HRP conjugated secondary antibody. Absorbance values taken at 450 nm and were normalized with total DNA (Hoechest stain). Results were expressed as percentage activation over vehicle control.

T1 sequence (Q9Y478 whole entry): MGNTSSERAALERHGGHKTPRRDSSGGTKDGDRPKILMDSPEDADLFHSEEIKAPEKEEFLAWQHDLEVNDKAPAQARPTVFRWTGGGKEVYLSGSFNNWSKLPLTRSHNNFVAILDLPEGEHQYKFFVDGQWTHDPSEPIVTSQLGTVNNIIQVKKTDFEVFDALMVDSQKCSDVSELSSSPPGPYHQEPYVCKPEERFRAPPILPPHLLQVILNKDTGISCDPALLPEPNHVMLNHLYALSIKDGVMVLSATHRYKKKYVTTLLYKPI
T1 sequence (Q13131 whole entry): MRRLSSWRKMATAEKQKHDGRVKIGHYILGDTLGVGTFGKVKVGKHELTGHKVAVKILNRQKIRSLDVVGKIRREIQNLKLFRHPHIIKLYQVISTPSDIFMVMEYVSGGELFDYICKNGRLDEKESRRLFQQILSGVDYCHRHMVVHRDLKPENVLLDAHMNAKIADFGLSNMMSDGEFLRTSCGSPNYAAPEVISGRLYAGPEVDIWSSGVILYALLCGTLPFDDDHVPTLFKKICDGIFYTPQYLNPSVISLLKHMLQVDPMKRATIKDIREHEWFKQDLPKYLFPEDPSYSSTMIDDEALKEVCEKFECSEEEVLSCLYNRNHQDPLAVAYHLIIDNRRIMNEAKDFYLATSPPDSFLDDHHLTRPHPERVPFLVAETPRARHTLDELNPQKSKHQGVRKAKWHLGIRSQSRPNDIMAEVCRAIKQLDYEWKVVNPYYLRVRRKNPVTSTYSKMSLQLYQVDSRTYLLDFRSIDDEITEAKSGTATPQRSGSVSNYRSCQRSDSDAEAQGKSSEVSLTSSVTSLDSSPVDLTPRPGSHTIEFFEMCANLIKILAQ
T1 sequence (P54619 whole entry partner): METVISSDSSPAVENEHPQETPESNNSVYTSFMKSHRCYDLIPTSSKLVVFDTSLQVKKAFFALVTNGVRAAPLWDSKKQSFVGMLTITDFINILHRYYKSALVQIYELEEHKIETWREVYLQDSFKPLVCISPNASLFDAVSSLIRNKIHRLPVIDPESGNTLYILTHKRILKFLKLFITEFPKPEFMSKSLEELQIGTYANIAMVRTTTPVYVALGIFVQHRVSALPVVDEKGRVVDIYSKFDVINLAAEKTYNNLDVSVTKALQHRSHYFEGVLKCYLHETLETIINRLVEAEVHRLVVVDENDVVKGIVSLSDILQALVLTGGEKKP

C/C(=C1/C(=O)Nc2cc(F)c(-c3ccc(-c4ccccc4O)cc3)cc21)c1cccc(CC(=O)N2CCCC2)c1 [Example 24, (3Z)-6-Fluoro-5-(2′-hydroxybiphenyl-4-yl)-3-(1-{3-[2-oxo-2-(pyrrolidin-1-yl)ethyl]phenyl}ethylidene)-1,3-dihydro-2H-indol-2-one] and CC(=C1C(=O)Nc2cc(F)c(-c3ccc(-c4ccccc4O)cc3)cc21)c1cccc(CC(=O)O)c1 [Example 8] cannot be ordered by activation at 1 µM: < 20% for the first, < 20% for the second.

Going from Cc1ccc(C=C2C(=O)Nc3cc(Cl)c(-c4ccc(-c5ccccc5O)cc4)cc32)cc1 [Example 18] to Cn1ccc(C=C2C(=O)Nc3cc(Cl)c(-c4ccc(-c5ccccc5O)cc4)cc32)c1 [Example 19], the activation at 1 µM rises from < 20% to > 40%.

Cn1ccc(C=C2C(=O)N(CC(=O)O)c3cc(Cl)c(-c4ccc(-c5ccccc5O)cc4)cc32)c1 (racemic) [Example 25, {(3E/32)-6-Chloro-5-(2′-hydroxybiphenyl-4-yl)-3-[(1-methyl-1H-pyrrol-3-yl)methylidene]-2-oxo-2,3-dihydro-1H-indol-1-yl}acetic acid] and Cn1cc(C=C2C(=O)N(CCO)c3cc(Cl)c(-c4ccc(-c5ccccc5O)cc4)cc32)cc1C(=O)O [Example 26] cannot be ordered by activation at 1 µM: < 20% for the first, < 20% for the second.

Cc1ccc(C=C2C(=O)Nc3cc(Cl)c(-c4ccc(-c5ccccc5O)cn4)cc32)cc1C(=O)O [Example 32] and Cc1ccc(C=C2C(=O)Nc3cc(Cl)c(-c4ccc(-c5ccccc5O)cn4)cc32)cc1CC(=O)O [Example 31] cannot be ordered by activation at 1 µM: < 20% for the first, < 20% for the second.

First: Cc1ccc(C=C2C(=O)Nc3cc(Cl)c(-c4ccc(-c5ccncc5)cc4)cc32)cc1CC(=O)O [Example 39]
Second: Cc1ccc(C=C2C(=O)Nc3cc(F)c(-c4ccc(-c5ccncc5)cc4)cc32)cc1CC(=O)O [Example 44]
The activation at 1 µM of the first is higher: 20 to 40% for the first, < 20% for the second.

First: O=C(O)Cc1cc(C=C2C(=O)Nc3cc(Cl)c(-c4ccc(-c5ccccc5O)cc4)cc32)ccc1O (racemic) [Example 12, (5-{(E/Z)-[6-Chloro-5-(2′-hydroxybiphenyl-4-yl)-2-oxo-1,2-dihydro-3H-indol-3-ylidene]methyl}-2-hydroxyphenyl)acetic acid]
Second: Cc1ccc(C=C2C(=O)Nc3cc(Cl)c(-c4ccc(-c5ccccc5O)cc4)cc32)cc1CC(=O)O (racemic) [Example 1, (5-{(E/Z)-[6-Chloro-5-(2′-hydroxybiphenyl-4-yl)-2-oxo-1,2-dihydro-3H-indol-3-ylidene]methyl}-2-methylphenyl)acetic acid]
The activation at 1 µM of the first is lower: < 20% for the first, > 40% for the second.

First: Cc1ccc(C=C2C(=O)Nc3cc(Cl)c(-c4ccc(-c5ccc(-n6cncn6)cc5)cc4)cc32)cc1CC(=O)O [Example 50]
Second: COc1ccc(C=C2C(=O)Nc3cc(Cl)c(-c4ccc(-c5ccc(-n6cncn6)cc5)cc4)cc32)cc1CC(=O)O [Example 51]
The activation at 1 µM of the first is lower: 20 to 40% for the first, > 40% for the second.

Cn1cc(C=C2C(=O)Nc3cc(Cl)c(-c4ccc(-c5ccc(-n6cncn6)cc5)cc4)cc32)cc1C(=O)O [Example 63] and Cn1c(C=C2C(=O)Nc3cc(Cl)c(-c4ccc(-c5ccc(-n6cncn6)cc5)cc4)cc32)ccc1C(=O)O [Example 69] cannot be ordered by activation at 1 µM: > 40% for the first, > 40% for the second.

Going from COc1ccc(C=C2C(=O)Nc3cc(Cl)c(-c4ccc(-c5ccc(-n6ccnc6C)cc5)cc4)cc32)cc1CC(=O)O [Example 66] to COc1ccc(C=C2C(=O)Nc3cc(Cl)c(-c4ccc(-c5ccc(-n6cccn6)cc5)cc4)cc32)cc1CC(=O)O [Example 49], the activation at 1 µM rises from < 20% to > 40%.

O=C1Nc2cc(Cl)c(-c3ccc(-c4ccccc4O)cc3)cc2C1=Cc1ccc(C(=O)O)[nH]1 [Example 15] and O=C1Nc2cc(Cl)c(-c3ccc(-c4ccccc4O)cc3)cc2C1=Cc1c[nH]c(C(=O)O)c1 [Example 16] cannot be ordered by activation at 1 µM: < 20% for the first, < 20% for the second.

Going from O=C(O)Cc1cccc(C=C2C(=O)Nc3cc(F)c(-c4ccc(-c5ccccc5O)cc4)cc32)c1 [Example 5] to O=C(O)Cc1ccc(C=C2C(=O)Nc3cc(F)c(-c4ccc(-c5ccccc5O)cc4)cc32)cc1 [Example 4], the activation at 1 µM falls from > 40% to < 20%.

Cc1ccc(C=C2C(=O)Nc3cc(F)c(-c4ccc(-c5ccc(-n6cncn6)cc5)cc4)cc32)cc1C(=O)O [Example 65] and Cc1ccc(C=C2C(=O)Nc3cc(F)c(-c4ccc(-c5ccc(-n6ccnn6)cc5)cc4)cc32)cc1C(=O)O [Example 64] cannot be ordered by activation at 1 µM: > 40% for the first, > 40% for the second.

Cc1ccc(C=C2C(=O)Nc3cc(Cl)c(-c4ccc(-c5ccc(S(C)(=O)=O)cc5)cc4)cc32)cc1CC(=O)O [Example 48] and Cc1ccc(C=C2C(=O)Nc3cc(F)c(-c4ccc(-c5ccccc5O)cc4)cc32)cc1CC(=O)O [Example 3] cannot be ordered by activation at 1 µM: > 40% for the first, > 40% for the second.

O=C(O)Cc1ccc(C=C2C(=O)Nc3cc(Cl)c(-c4ccc(-c5ccc(-n6cncn6)cc5)cc4)cc32)cc1 [Example 53] and O=C(O)Cc1cccc(C=C2C(=O)Nc3cc(Cl)c(-c4ccc(-c5ccc(-n6cncn6)cc5)cc4)cc32)c1 [Example 52] cannot be ordered by activation at 1 µM: > 40% for the first, > 40% for the second.

Going from Cn1cc(C=C2C(=O)Nc3cc(Cl)c(-c4ccc(-c5ccccc5)cc4)cc32)cc1C(=O)O [Example 23] to Cn1cc(C=C2C(=O)Nc3cc(Cl)c(-c4ccc(-c5ccccc5O)cc4)cc32)cc1C(=O)O [Example 13], the activation at 1 µM rises from < 20% to > 40%.

Cc1ccc(C=C2C(=O)Nc3cc(Cl)c(-c4ccc(-c5ccccc5O)nc4)cc32)cc1CC(=O)O [Example 33] and COc1ccc(C=C2C(=O)Nc3cc(Cl)c(-c4ccc(-c5ccccc5O)cn4)cc32)cc1CC(=O)O [Example 34] cannot be ordered by activation at 1 µM: < 20% for the first, < 20% for the second.

First: Cn1cc(CC(=O)O)cc1C=C1C(=O)Nc2cc(Cl)c(-c3ccc(-c4ccccc4O)cc3)cc21 [Example 17]
Second: Cn1c(C=C2C(=O)Nc3cc(Cl)c(-c4ccc(-c5ccccc5O)cc4)cc32)ccc1C(=O)O [Example 14]
The activation at 1 µM of the first is lower: < 20% for the first, 20 to 40% for the second.

O=C1Nc2cc(Cl)c(-c3ccc(-c4ccccc4O)cc3)cc2C1=Cc1csc(C(=O)O)n1 [Example 22] and Cn1nc(/C=C2\C(=O)Nc3cc(Cl)c(-c4ccc(-c5ccccc5O)cc4)cc32)cc1C(=O)O [Example 20, 3-{(Z)-[6-chloro-5-(2′-hydroxybiphenyl-4-yl)-2-oxo-1,2-dihydro-3H-indol-3-ylidene]methyl}-1-methyl-1H-pyrazole-5-carboxylic acid] cannot be ordered by activation at 1 µM: < 20% for the first, < 20% for the second.

First: Cc1ccc(C=C2C(=O)Nc3cc(F)c(-c4cccc(-c5ccccc5O)c4)cc32)cc1CC(=O)O (single isomer, unassigned) [Example 30, (5-{(E/Z)-[6-Fluoro-5-(2′-hydroxybiphenyl-3-yl)-2-oxo-1,2-dihydro-3H-indol-3-ylidene]methyl}-2-methylphenyl)acetic acid]
Second: COc1ccc(C=C2C(=O)Nc3cc(F)c(-c4ccc(-c5ccccc5O)cc4)cc32)cc1CC(=O)O [Example 7]
The activation at 1 µM of the first is lower: < 20% for the first, > 40% for the second.

First: Cc1ccc(C=C2C(=O)Nc3cc(F)c(-c4ccc(-c5ccccc5O)cc4)cc32)cc1C(=O)O [Example 2]
Second: Cc1ccc(C=C2C(=O)Nc3cc(Cl)c(-c4ccc(-c5ccccc5O)cc4)cc32)cc1C(=O)O [Example 9]
The activation at 1 µM of the first is lower: 20 to 40% for the first, > 40% for the second.

COc1ccc(C=C2C(=O)Nc3cc(Cl)c(-c4ccc(-c5ccc(-n6cncn6)cc5)c(F)c4)cc32)cc1CC(=O)O [Example 60] and COc1ccc(C=C2C(=O)Nc3cc(F)c(-c4ccc(-c5ccc(-n6cncn6)cc5)cc4)cc32)cc1CC(=O)O [Example 59] cannot be ordered by activation at 1 µM: > 40% for the first, > 40% for the second.

Compared with Cn1cc(C=C2C(=O)Nc3cc(F)c(-c4ccc(-c5ccncc5)cc4)cc32)cc1C(=O)O [Example 43], Cc1ccc(C=C2C(=O)Nc3cc(F)c(-c4ccc(-c5ccc(-n6cccn6)cc5)cc4)cc32)cc1C(=O)O [Example 61] is higher in activation at 1 µM: < 20% for the first, > 40% for the second.

Compared with COc1ccc(C=C2C(=O)Nc3cc(Cl)c(-c4ccc(-c5ccccc5O)cc4)nc32)cc1C(=O)O [Example 38], COc1ccc(C=C2C(=O)Nc3cc(Cl)c(-c4ccc(-c5ccccc5O)cc4)nc32)cc1CC(=O)O [Example 37] is higher in activation at 1 µM: 20 to 40% for the first, > 40% for the second.

COc1ccc(C=C2C(=O)Nc3cc(Cl)c(-c4ncc(-c5ccccc5O)cn4)cc32)cc1CC(=O)O [Example 46] and Cc1ccc(C=C2C(=O)Nc3cc(Cl)c(-c4ncc(-c5ccccc5O)cn4)cc32)cc1CC(=O)O [Example 45] cannot be ordered by activation at 1 µM: < 20% for the first, < 20% for the second.

O=C(O)COc1cccc(C=C2C(=O)Nc3cc(Cl)c(-c4ccc(-c5ccccc5O)cc4)cc32)c1 [Example 10] and O=C(O)Cc1cccc(C=C2C(=O)Nc3cc(Cl)c(-c4ccc(-c5ccccc5O)nc4)cc32)c1 [Example 35] cannot be ordered by activation at 1 µM: < 20% for the first, < 20% for the second.

First: CN1C(=O)C(=Cc2cc(C(=O)O)n(C)c2)c2cc(-c3ccc(-c4ccccc4O)cc3)c(Cl)cc21 [Example 29]
Second: Cc1ccc(C=C2C(=O)Nc3cc(Cl)c(-c4ccc(-c5ccccc5O)cc4)nc32)cc1CC(=O)O [Example 36]
The activation at 1 µM of the first is lower: < 20% for the first, 20 to 40% for the second.

In the case of Cn1nc(C=C2C(=O)Nc3cc(Cl)c(-c4ccc(-c5ccccc5O)cc4)cc32)cc1C(=O)[O-].[Na+] (mixture of isomers) [Example 21, Sodium 3-{(E/Z)-[6-chloro-5-(2′-hydroxybiphenyl-4-yl)-2-oxo-1,2-dihydro-3H-indol-3-ylidene]methyl}-1-methyl-1H-pyrazole-5-carboxylate], the “Activity beta 1 (at 1 uM)” value is reported as “* (* <20)”.

Biological target: T2, AMPK beta 2 (Mus musculus, UniProt Q6PAM0+Q8BRK8)
T2 construct: fully differentiated myotubes (C2C12 cells) grown in 96 well plate; endogenous in cells; host or cells: C2C12 myotubes
Experiment: in-cell-ELISA for phospho-ACC, Activity beta 2
Type: cell-based
Details: 2 h, serum free DMEM, percentage activation over vehicle control, cell line not given (HepG2 or C2C12 myotubes)
Description: as §1

T2 sequence (Q6PAM0 whole entry): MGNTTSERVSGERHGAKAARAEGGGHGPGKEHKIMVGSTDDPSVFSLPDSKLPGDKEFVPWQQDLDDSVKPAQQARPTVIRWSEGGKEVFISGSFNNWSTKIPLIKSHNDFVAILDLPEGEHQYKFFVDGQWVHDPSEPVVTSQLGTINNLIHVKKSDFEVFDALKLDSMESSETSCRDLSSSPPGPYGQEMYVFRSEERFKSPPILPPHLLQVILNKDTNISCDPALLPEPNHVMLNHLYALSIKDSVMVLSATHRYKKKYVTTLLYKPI
T2 sequence (Q8BRK8 whole entry): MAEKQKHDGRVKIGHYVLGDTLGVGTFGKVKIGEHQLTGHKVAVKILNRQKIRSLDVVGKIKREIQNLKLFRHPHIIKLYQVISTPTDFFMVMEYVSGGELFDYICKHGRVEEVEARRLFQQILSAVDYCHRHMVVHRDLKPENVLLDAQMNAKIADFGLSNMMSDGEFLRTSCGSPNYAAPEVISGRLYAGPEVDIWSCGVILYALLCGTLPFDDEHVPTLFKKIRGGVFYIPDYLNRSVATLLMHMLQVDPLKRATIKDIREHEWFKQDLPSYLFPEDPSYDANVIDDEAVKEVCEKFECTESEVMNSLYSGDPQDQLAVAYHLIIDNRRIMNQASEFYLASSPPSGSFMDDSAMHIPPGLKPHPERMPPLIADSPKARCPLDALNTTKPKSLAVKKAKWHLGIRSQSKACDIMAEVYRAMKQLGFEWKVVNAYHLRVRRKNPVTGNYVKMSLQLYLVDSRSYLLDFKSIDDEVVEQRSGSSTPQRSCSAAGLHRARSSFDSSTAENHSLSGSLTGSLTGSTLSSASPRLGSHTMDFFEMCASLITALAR
T2 sequence (O54950 whole entry partner): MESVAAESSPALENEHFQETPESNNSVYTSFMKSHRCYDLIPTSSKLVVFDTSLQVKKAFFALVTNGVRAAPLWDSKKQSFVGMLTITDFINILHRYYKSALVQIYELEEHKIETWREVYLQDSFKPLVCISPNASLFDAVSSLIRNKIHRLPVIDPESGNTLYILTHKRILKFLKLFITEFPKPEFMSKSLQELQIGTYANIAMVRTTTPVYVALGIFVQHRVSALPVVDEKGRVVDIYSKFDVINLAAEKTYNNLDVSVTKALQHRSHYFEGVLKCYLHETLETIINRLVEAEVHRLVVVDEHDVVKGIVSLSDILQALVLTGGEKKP

With Cc1ccc(C=C2C(=O)Nc3cc(Cl)c(-c4ccc(-c5ccc(S(C)(=O)=O)cc5)cc4)cc32)cc1CC(=O)O [Example 48] the “Activity beta 2 (at 1 uM)” value was “*** (*** >40)”.
In the case of O=C(O)Cc1ccc(C=C2C(=O)Nc3cc(Cl)c(-c4ccc(-c5ccc(-n6cncn6)cc5)cc4)cc32)cc1 [Example 53], the “Activity beta 2 (at 1 uM)” value is reported as “*** (*** >40)”.
Cn1cc(C=C2C(=O)Nc3cc(Cl)c(-c4ccc(-c5ccccc5O)cc4)cc32)cc1C(=O)O [Example 13] was tested, and the “Activity beta 2 (at 1 uM)” value was “*** (*** >40)”.
With COc1ccc(C=C2C(=O)Nc3cc(Cl)c(-c4ccc(-c5ccc(-n6cncn6)cc5)cc4)cc32)cc1CC(=O)O [Example 51] the “Activity beta 2 (at 1 uM)” value was “*** (*** >40)”.
